Measurements reported in patent publication US12655116B2, “Substituted isophthalic acid diamides” (Bayer Aktiengesellschaft, priority 2020, dated 2026).

Key:
ABUTH [1] = assay: Pre-emergence herbicidal action against ABUTH; assay type: in vivo, Abutilon theophrasti; settings: Abutilon theophrasti, 504 h
Summary of the method: (§1)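 Seeds sown in sandy loam, soil-covered; compound sprayed on soil surface pre-emergence. Application: WP/EC, 600–800 l/ha, 0.2% wetting agent. Readout: visual % damage at 3 weeks.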

ALOMY [2] = assay: Pre-emergence herbicidal action against ALOMY; assay type: in vivo, Alopecurus myosuroides; settings: Alopecurus myosuroides, 504 h; 80 g/ha, pre-emergence, scored visually after 3 weeks vs untreated controls (100% = plants have died, 0% = like control plants)
Summary of the method: as §1

AMARE [3] = assay: Pre-emergence herbicidal action against AMARE; assay type: in vivo, Amaranthus retroflexus; settings: Amaranthus retroflexus, 504 h, scored visually after 3 weeks vs untreated controls, 100% = plants have died, 0% = like control plants
Summary of the method: as §1

AVEFA [4] = assay: Pre-emergence herbicidal action against AVEFA; assay type: in vivo, Avena fatua; settings: Avena fatua, 504 h; 80 g/ha, pre-emergence
Summary of the method: as §1

ECHCG [5] = assay: Pre-emergence herbicidal action against ECHCG; assay type: in vivo, Echinochloa crus-galli; settings: Echinochloa crus-galli, 504 h
Summary of the method: as §1

MATIN [6] = assay: Pre-emergence herbicidal action against MATIN; assay type: in vivo, Matricaria inodora; settings: Tripleurospermum inodorum, 504 h
Summary of the method: as §1

PHBPU [7] = assay: Pre-emergence herbicidal action against PHBPU; assay type: in vivo, Pharbitis purpurea; settings: Ipomoea purpurea, 504 h, dosage 80 g/ha
Summary of the method: as §1

POLCO [8] = assay: Pre-emergence herbicidal action against POLCO; assay type: in vivo, Polygonum convolvulus; settings: Fallopia convolvulus, 504 h, dosage 80 g/ha
Summary of the method: as §1

SETVI [9] = assay: Pre-emergence herbicidal action against SETVI; assay type: in vivo, Setaria viridis; settings: Setaria viridis, 504 h, dosage 80 g/ha
Summary of the method: as §1

STEME [10] = assay: Pre-emergence herbicidal action against STEME; assay type: in vivo, Stellaria media; settings: Stellaria media, 504 h
Summary of the method: as §1

VERPE [11] = assay: Pre-emergence herbicidal action against VERPE; assay type: in vivo, Veronica persica; settings: Veronica persica, 504 h, dosage 80 g/ha
Summary of the method: as §1

VIOTR [12] = assay: Pre-emergence herbicidal action against VIOTR; assay type: in vivo, Viola tricolor; settings: Viola tricolor, 504 h
Summary of the method: as §1

DIGSA [13] = assay: Pre-emergence herbicidal action against DIGSA; assay type: in vivo, Digitaria sanguinalis; settings: Digitaria sanguinalis, 504 h
Summary of the method: as §1

ABUTH [14] = assay: Post-emergence herbicidal action against ABUTH; assay type: in vivo, Abutilon theophrasti; settings: Abutilon theophrasti, 504 h, visual assessment about 3 weeks after treatment vs untreated controls
Summary of the method: (§2)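 Sandy loam, greenhouse; treatment 2–3 weeks after sowing, one-leaf stage. Aqueous suspension or emulsion from WP/EC sprayed on foliage (600–800 l/ha, 0.2% wetting agent). Readout: visual % action, ~3 weeks.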

ALOMY [15] = assay: Post-emergence herbicidal action against ALOMY; assay type: in vivo, Alopecurus myosuroides; settings: Alopecurus myosuroides, 504 h, dosage 20 g/ha, visual assessment about 3 weeks after treatment vs untreated controls
Summary of the method: as §2

AMARE [16] = assay: Post-emergence herbicidal action against AMARE; assay type: in vivo, Amaranthus retroflexus; settings: Amaranthus retroflexus, 504 h, 20 g/ha, visual assessment about 3 weeks after treatment, 100% = plants have died, 0% = like control plants
Summary of the method: as §2

AVEFA [17] = assay: Post-emergence herbicidal action against AVEFA; assay type: in vivo, Avena fatua; settings: Avena fatua, 504 h, 20 g/ha, visual assessment about 3 weeks after treatment, 100% = plants have died, 0% = like control plants
Summary of the method: as §2

ECHCG [18] = assay: Post-emergence herbicidal action against ECHCG; assay type: in vivo, Echinochloa crus-galli; settings: Echinochloa crus-galli, 504 h
Summary of the method: as §2

MATIN [19] = assay: Post-emergence herbicidal action against MATIN; assay type: in vivo, Matricaria inodora; settings: Tripleurospermum inodorum, 504 h
Summary of the method: as §2

PHBPU [20] = assay: Post-emergence herbicidal action against PHBPU; assay type: in vivo, Pharbitis purpurea; settings: Ipomoea purpurea, 504 h
Summary of the method: as §2

POLCO [21] = assay: Post-emergence herbicidal action against POLCO; assay type: in vivo, Polygonum convolvulus; settings: Fallopia convolvulus, 504 h, dosage 20 g/ha
Summary of the method: as §2

SETVI [22] = assay: Post-emergence herbicidal action against SETVI; assay type: in vivo, Setaria viridis; settings: Setaria viridis, 504 h
Summary of the method: as §2

STEME [23] = assay: Post-emergence herbicidal action against STEME; assay type: in vivo, Stellaria media; settings: Stellaria media, 504 h
Summary of the method: as §2

VERPE [24] = assay: Post-emergence herbicidal action against VERPE; assay type: in vivo, Veronica persica; settings: Veronica persica, 504 h
Summary of the method: as §2

VIOTR [25] = assay: Post-emergence herbicidal action against VIOTR; assay type: in vivo, Viola tricolor; settings: Viola tricolor, 504 h, 20 g/ha
Summary of the method: as §2

DIGSA [26] = assay: Post-emergence herbicidal action against DIGSA; assay type: in vivo, Digitaria sanguinalis; settings: Digitaria sanguinalis, 504 h
Summary of the method: as §2

Structure (SMILES): CCNC(=O)c1c(C(F)F)ccc(C(=O)Nc2nnnn2C)c1SC [Example 1-88]
- pest or weed control at 80 g/ha (ABUTH [1]; 80 g/ha, scored visually after 3 weeks vs untreated controls (100% = plants have died, 0% = like control plants)): 100%
- pest or weed control at 20 g/ha (ABUTH [1]; dosage 20 g/ha, scored visually after 3 weeks vs untreated controls, 100% = plants have died, 0% = like control plants, read-out: Pre-emergence action against ABUTH (herbicidal activity in percent)): 100%
- pest or weed control at 80 g/ha (ALOMY [2]): 90%
- pest or weed control at 20 g/ha (AMARE [3]; 20 g/ha): 100%
- pest or weed control at 80 g/ha (AMARE [3]; 80 g/ha): 100%
- pest or weed control at 80 g/ha (AVEFA [4]): 90%
- pest or weed control at 20 g/ha (ECHCG [5]; 20 g/ha): 90%
- pest or weed control at 80 g/ha (ECHCG [5]; 80 g/ha): 100%
- pest or weed control at 20 g/ha (MATIN [6]; dosage 20 g/ha): 100%
- pest or weed control at 80 g/ha (MATIN [6]; dosage 80 g/ha): 100%
- pest or weed control at 80 g/ha (PHBPU [7]): 90%
- pest or weed control at 80 g/ha (POLCO [8]): 80%
- pest or weed control at 80 g/ha (SETVI [9]): 100%
- pest or weed control at 20 g/ha (STEME [10]; dosage 20 g/ha): 100%
- pest or weed control at 80 g/ha (STEME [10]; dosage 80 g/ha): 100%
- pest or weed control at 80 g/ha (VERPE [11]): 100%
- pest or weed control at 20 g/ha (VIOTR [12]; dosage 20 g/ha): 100%
- pest or weed control at 80 g/ha (VIOTR [12]; dosage 80 g/ha): 100%
- pest or weed control at 20 g/ha (DIGSA [13]; dosage 20 g/ha): 100%
- pest or weed control at 80 g/ha (DIGSA [13]; dosage 80 g/ha): 100%
- pest or weed control at 5 g/ha (ABUTH [14]; dosage 5 g/ha): 90%
- pest or weed control at 20 g/ha (ABUTH [14]; dosage 20 g/ha): 90%
- pest or weed control at 20 g/ha (ALOMY [15]): 80%
- pest or weed control at 20 g/ha (AMARE [16]): 90%
- pest or weed control at 20 g/ha (AVEFA [17]): 80%
- pest or weed control at 5 g/ha (ECHCG [18]; dosage 5 g/ha): 80%
- pest or weed control at 20 g/ha (ECHCG [18]; dosage 20 g/ha): 90%
- pest or weed control at 5 g/ha (MATIN [19]; dosage 5 g/ha): 80%
- pest or weed control at 20 g/ha (MATIN [19]; dosage 20 g/ha): 80%
- pest or weed control at 5 g/ha (PHBPU [20]; dosage 5 g/ha): 80%
- pest or weed control at 20 g/ha (PHBPU [20]; dosage 20 g/ha): 90%
- pest or weed control at 20 g/ha (POLCO [21]): 80%
- pest or weed control at 5 g/ha (SETVI [22]; dosage 5 g/ha): 80%
- pest or weed control at 20 g/ha (SETVI [22]; dosage 20 g/ha): 90%
- pest or weed control at 20 g/ha (STEME [23]; 20 g/ha): 90%
- pest or weed control at 5 g/ha (STEME [23]; dosage 5 g/ha): 90%
- pest or weed control at 5 g/ha (VERPE [24]; 5 g/ha): 80%
- pest or weed control at 20 g/ha (VERPE [24]; 20 g/ha): 90%
- pest or weed control at 20 g/ha (VIOTR [25]): 80%
- pest or weed control at 5 g/ha (DIGSA [26]; 5 g/ha): 90%
- pest or weed control at 20 g/ha (DIGSA [26]; 20 g/ha): 90%
